Laboratory results from ChEMBL document CHEMBL1129981 (J Med Chem, 1997).
pIC50: −log10 of the molar value.

Assays:
[1] = molecular target: Sodium-dependent serotonin transporter (Rattus norvegicus, UniProt P31652); assay: Inhibition of uptake of [3H]5-HT in synaptosomes from rat cortex; assay type: functional, subcellular, Brain
[2] = molecular target: T1, Adrenergic receptor alpha-2 (Rattus norvegicus, UniProt P22086+P19328+P22909); assay: Ability to displace [3H]rauwolscine from Alpha-2 adrenergic receptor in rat cortical membranes; assay type: cell membranes
T1 sequence (P22086 whole entry): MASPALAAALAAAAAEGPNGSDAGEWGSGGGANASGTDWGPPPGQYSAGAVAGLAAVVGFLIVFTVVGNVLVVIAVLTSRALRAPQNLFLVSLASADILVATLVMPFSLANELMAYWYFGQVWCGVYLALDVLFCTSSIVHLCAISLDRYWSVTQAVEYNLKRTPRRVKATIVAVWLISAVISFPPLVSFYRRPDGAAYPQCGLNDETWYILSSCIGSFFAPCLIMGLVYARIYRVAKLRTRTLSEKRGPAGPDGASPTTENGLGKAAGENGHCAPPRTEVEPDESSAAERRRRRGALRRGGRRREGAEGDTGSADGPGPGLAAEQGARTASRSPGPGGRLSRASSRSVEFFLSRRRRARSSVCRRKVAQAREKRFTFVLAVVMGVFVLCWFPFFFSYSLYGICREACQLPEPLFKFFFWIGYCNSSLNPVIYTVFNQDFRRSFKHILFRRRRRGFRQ
T1 sequence (P19328 whole entry): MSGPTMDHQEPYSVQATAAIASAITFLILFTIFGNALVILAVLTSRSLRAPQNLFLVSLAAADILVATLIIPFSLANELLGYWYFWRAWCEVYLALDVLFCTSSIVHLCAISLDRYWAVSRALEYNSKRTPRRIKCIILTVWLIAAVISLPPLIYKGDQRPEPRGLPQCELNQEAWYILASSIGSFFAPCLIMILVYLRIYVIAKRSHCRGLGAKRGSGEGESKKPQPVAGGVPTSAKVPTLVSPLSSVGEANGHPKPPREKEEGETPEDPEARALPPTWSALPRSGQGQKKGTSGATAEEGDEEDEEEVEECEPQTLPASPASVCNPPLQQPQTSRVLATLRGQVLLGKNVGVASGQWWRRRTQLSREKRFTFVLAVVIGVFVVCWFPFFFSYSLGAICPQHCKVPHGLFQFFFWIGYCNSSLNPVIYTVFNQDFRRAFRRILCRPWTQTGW
T1 sequence (P22909 whole entry): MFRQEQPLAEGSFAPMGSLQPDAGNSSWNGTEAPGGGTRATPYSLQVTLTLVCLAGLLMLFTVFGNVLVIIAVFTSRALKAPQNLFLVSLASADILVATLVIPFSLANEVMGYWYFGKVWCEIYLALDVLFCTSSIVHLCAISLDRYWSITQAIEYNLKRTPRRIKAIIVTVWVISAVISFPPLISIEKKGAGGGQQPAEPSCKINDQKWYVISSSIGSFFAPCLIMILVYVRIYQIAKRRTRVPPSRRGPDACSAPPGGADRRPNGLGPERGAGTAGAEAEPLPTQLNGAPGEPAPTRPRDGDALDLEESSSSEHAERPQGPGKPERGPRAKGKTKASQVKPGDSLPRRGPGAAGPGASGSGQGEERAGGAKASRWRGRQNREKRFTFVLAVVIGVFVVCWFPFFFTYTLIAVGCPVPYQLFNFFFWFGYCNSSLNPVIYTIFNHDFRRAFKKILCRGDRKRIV

Sodium-dependent serotonin transporter, sequence (P31652 whole entry): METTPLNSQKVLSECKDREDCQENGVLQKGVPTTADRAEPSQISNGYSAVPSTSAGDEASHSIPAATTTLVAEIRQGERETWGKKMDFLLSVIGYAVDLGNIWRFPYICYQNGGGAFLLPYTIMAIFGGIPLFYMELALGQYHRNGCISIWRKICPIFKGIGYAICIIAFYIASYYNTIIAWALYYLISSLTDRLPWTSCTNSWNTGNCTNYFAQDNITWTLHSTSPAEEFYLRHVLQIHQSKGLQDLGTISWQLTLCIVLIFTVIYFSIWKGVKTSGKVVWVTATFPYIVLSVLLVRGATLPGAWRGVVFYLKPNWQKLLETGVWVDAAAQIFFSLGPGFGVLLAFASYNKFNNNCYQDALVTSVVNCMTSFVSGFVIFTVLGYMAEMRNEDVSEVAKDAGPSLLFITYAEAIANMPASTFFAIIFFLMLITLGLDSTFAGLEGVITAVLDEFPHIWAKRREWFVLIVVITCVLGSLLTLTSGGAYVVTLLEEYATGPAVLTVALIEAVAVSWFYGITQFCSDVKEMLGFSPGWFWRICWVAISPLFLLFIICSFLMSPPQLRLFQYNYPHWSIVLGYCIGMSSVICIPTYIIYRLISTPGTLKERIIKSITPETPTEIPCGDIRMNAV

Row | pIC50 [1] | Ki [2] | SMILES
1 | 5.85 | 57.5 nM | COc1ccc2c(c1)C(CN(C)CCc1ccc3c(c1)OCO3)CCC2 (stereo not drawn)
2 | 7.57 | 5.57 nM | CN(CCc1ccc2c(c1)OCO2)C[C@@H]1CCCc2c1ccc1c2OCC1
3 | 7.47 | 4.67 nM | COc1cccc2c1CCC[C@H]2CN(C)CCc1ccc2c(c1)CCS2(=O)=O
4 | 5.84 | 2.88 nM | COc1cccc2c1C(CN(C)CCc1ccc3c(c1)OCO3)CCC2 (stereo not drawn)
5 | 7.00 | 4.88 nM | CN(CCc1ccc2c(c1)OCO2)C[C@@H]1CCCc2c1ccc1ccoc21
6 | 7.75 | 2.78 nM | COc1cccc2c1CCC[C@H]2CN(C)CCc1ccc2occc2c1
7 | 7.71 | 4.51 nM | COc1cccc2c1CCC[C@H]2CN(C)CCc1ccc2nc(O)oc2c1
8 | 7.29 | 4.82 nM | COc1cccc2c1CCC[C@H]2CN(C)CCc1ccc2c(c1)C=CS2(=O)=O
9 | 7.46 | 4.62 nM | COc1cccc2c1CCC[C@H]2CN(C)CCc1ccc2c(c1)CCN2S(C)(=O)=O
10 | 6.80 | 5.73 nM | CCN(CCc1ccc2c(c1)OCO2)C[C@@H]1CCCc2c(OC)cccc21
11 | 6.18 | 19 nM | CN(CCc1ccc2c(c1)OCO2)CC1CCCc2c(NS(C)(=O)=O)cccc21 (stereo not drawn)
12 | 7.06 | 2.12 nM | COc1cccc2c1CCC[C@H]2CN(C)CCc1ccc2nc(C)sc2c1
13 | 6.36 | 94.1 nM | CN(CCc1ccc2c(c1)OCO2)C[C@@H]1CC[C@H]2CCOc3cccc1c32
14 | 7.61 | 2.65 nM | COc1cccc2c1CCC[C@H]2CN(C)CCc1ccc2c(c1)CCS2
15 | 7.37 | 9.27 nM | COc1cccc2c1CCC[C@H]2CN(C)CCc1ccc2nc(C)oc2c1
16 | 7.69 | 8.99 nM | COc1cccc2c1CCC[C@H]2CN(C)CCc1ccc2c(c1)CCC2
17 | 8.24 | 5.33 nM | COc1cccc2c1CCC[C@H]2CN(C)CCc1ccc2c(c1)CN(S(C)(=O)=O)C2
18 | 7.33 | 3.91 nM | COc1cccc2c1CCC[C@H]2CN(C)CCc1ccc2ncccc2c1
19 | 8.28 | 1.22 nM | COc1cccc2c1CCC[C@H]2CN(C)CCc1ccc2ncoc2c1
20 | 5.96 | 8.19 nM | CN(CCc1ccc2c(c1)OCO2)CC1CCCc2ccccc21 (stereo not drawn)

Row | pIC50 [1] | Ki [2] | SMILES
21 | 7.27 | 6.07 nM | COc1cccc2c1CCC[C@H]2CN(C)CCc1ccc2ccncc2c1
22 | 6.33 | 23.5 nM | COc1ccc2c(c1)CCCC2CN(C)CCc1ccc2c(c1)OCO2 (stereo not drawn)
23 | 6.64 | 2.64 nM | COc1cccc2c1CCC[C@H]2CN(C)CCc1ccc2c(c1)COC2
24 | 5.88 | 88.6 nM | COc1cccc2c1CCC[C@@H]2CN(C)CCc1ccc2c(c1)OCO2
25 |  | 54.3 nM | COc1cccc2c1CCC[C@H]2CN(CCc1ccc2c(c1)OCO2)CC1CC1
26 | 7.41 | 5.35 nM | COc1cccc2c1CCC[C@H]2CN(C)CCc1ccc2c(c1)N(S(C)(=O)=O)CC2
27 | 7.17 | 7.5 nM | COc1cccc2c1CCC[C@H]2CN(C)CCc1ccc2oc(O)nc2c1
28 | 8.02 | 5.67 nM | COc1cccc2c1CCC[C@H]2CN(C)CCc1ccc2nc(N)sc2c1
29 | 7.10 | 11.7 nM | COc1cccc2c1CCC[C@H]2CN(C)CCc1ccc2c(c1)NCC2
30 | 7.74 | 1.88 nM | COc1cccc2c1CCC[C@H]2CN(C)CCc1ccc2c(c1)OCC2
31 |  | 266 nM | COc1cccc2c1CCC[C@H]2CN(CCc1ccc2c(c1)OCO2)C1CC1
32 | 8.05 | 2.73 nM | COc1cccc2c1CCC[C@H]2CN(C)CCc1ccc2ncsc2c1
33 | 7.50 | 3.42 nM | COc1cccc2c1CCC[C@H]2CN(C)CCc1ccc2c(c1)CCN2
34 | 7.22 | 11 nM | CN(CCc1ccc2c(c1)OCO2)CC1CCCc2c1ccc1c2OCO1 (stereo not drawn)
35 | 6.12 | 15.5 nM | COc1ccc2c(c1OC)CCC[C@H]2CN(C)CCc1ccc2c(c1)OCO2
36 | 7.28 | 17.9 nM | COc1cccc2c1CCC[C@H]2CN(C)CCc1ccc2sccc2c1
37 | 7.22 | 142 nM | COc1cccc2c1CCC[C@H]2CN(C)CCc1ccc2c(c1)CN(S(=O)(=O)C(F)(F)F)C2
38 | 7.42 | 5.45 nM | COc1cccc2c1CCC[C@H]2CN(C)CCc1ccc2nc(Cl)sc2c1
39 | 7.94 | 5.99 nM | COc1cccc2c1CCC[C@H]2CN(C)CCc1ccc2c(c1)CNC2
40 | 6.06 | 113 nM | CN(CCc1ccc2c(c1)OCO2)C[C@@H]1CC[C@@H]2CCOc3cccc1c32

Row | pIC50 [1] | Ki [2] | SMILES
41 | 6.88 | 158 nM | COc1cccc2c1CCC[C@H]2CN(C)CCc1ccc2c(c1)CCN2S(=O)(=O)C(F)(F)F
42 | 7.90 | 1.7 nM | COc1cccc2c1CCC[C@H]2CN(C)CCc1ccc2c(c1)OCO2
43 |  | 184 nM | C#CCN(CCc1ccc2c(c1)OCO2)C[C@@H]1CCCc2c(OC)cccc21
44 | 7.69 | 6.71 nM | COc1cccc2c1CCCC2CN(C)CCc1ccc2c(c1)OCO2 (stereo not drawn)
45 | 5.91 | 7.54 nM | CN(CCc1ccc2c(c1)OCO2)CC1CCCc2c(O)cccc21 (stereo not drawn)
46 | 6.93 | 21 nM | CSc1cccc2c1CCCC2CN(C)CCc1ccc2c(c1)OCO2 (stereo not drawn)
47 | 7.65 | 4.91 nM | COc1cccc2c1CCC[C@H]2CN(C)CCc1ccc2c(c1)CC(=O)N2
48 | 7.79 | 10.8 nM | COc1cccc2c1CCC[C@H]2CN(C)CCc1ccc2[nH]c(O)nc2c1
49 | 6.70 | 1.86 nM | CCOc1cccc2c1CCC[C@H]2CN(C)CCc1ccc2c(c1)OCO2
50 | 7.95 | 5.21 nM | COc1cccc2c1CCC[C@H]2CN(C)CCc1ccc2[nH]cnc2c1
51 | 7.84 | 1.76 nM | COc1cccc2c1CCC[C@H]2CN(C)CCc1ccc2c(c1)CCO2
52 | 7.35 | 1.81 nM | COc1cccc2c1CCC[C@H]2CN(C)CCc1ccc2nccnc2c1
53 | 7.78 | 1.77 nM | COc1cccc2c1CCC[C@H]2CN(C)CCc1ccc2ocnc2c1
54 | 7.74 | 6.79 nM | COc1cccc2c1CCC[C@H]2CN(C)CCc1ccc2cccnc2c1
55 | 6.38 | 88.2 nM | COc1cccc2c1CCC[C@H]2CNCCc1ccc2c(c1)OCO2
56 | 8.18 | 1.78 nM | COc1cccc2c1CCC[C@H]2CN(C)CCc1ccc2c(c1)CS(=O)(=O)C2
57 | 6.74 | 125 nM | COc1cccc2c1CCC[C@H]2CN(C)CCc1ccc2c(c1)N(S(=O)(=O)C(F)(F)F)CC2
58 | 6.05 | 4.17 nM | C1=C(CC2=NCCN2)CCc2ccccc21 [NAPAMEZOLE]
